Assay results: patent US12622975B2, “Peptide-conjugated prodrugs” (priority 2019, dated 2026)
≈ marks a conversion by molar mass, not a printed value. Where “and” joins values, the source holds several entries; their conditions need not be identical. Equal entries are not always repeated. Entries after “also recorded” stand apart in the source; their conditions may differ. Where two headings read alike, the source gives them in different places. Numbered stars: 1 amine (or outer) side, 2 acyl side, 3 side chain; on linkers, the order of the positions; unused ones are H or OH. Square brackets hold non-standard residues; d marks the D form. Peptide text beside a SMILES is read from it. * marks the point of attachment. X1 = O=C(CCC(=O)[*:2])OCC(N[*:1])C(O)c1ccc([N+](=O)[O-])cc1; Dichloroacetyl = O=C(C(Cl)Cl)*

Legend:
[1] = test system: wild type E. coli strain (K-12); test: Bacteria culture and inhibitory activity assay (MIC); format: cell-based; settings: for MIC: Escherichia coli
Method: Bacteria culture and inhibitory activity assay: Single esterase (BioH, YjfP, FrsA, YbfF, YfbB, YqiA, YeiG, or and YpfH) deletion mutants were purchased from Dharmacon Horizon Discovery (Cambridge, United Kingdom). […] Compounds were added at different concentrations.
Compounds were added at different concentrations.

[2] = test system: HS-5 cells; test: Cell viability assay (MTT), HS-5; format: cell-based, human; settings: 24 hours; for cytotoxicity / cell viability of HS-5 cells: 20 μM; for cytotoxicity of control compounds against HS-5 cells: around MIC values (0.5 μM)
[3] = test system: carboxylesterase (CES); test: Hydrolysis assay with exogenous carboxylesterase; format: in vitro ADME, porcine; settings: CES 0.1 U/mL
From the text: Experimental materials and instruments. All the solvents and chemical reagents were used directly as received from the commercial sources without further purification unless otherwise stated. Carboxylesterase (CES) from porcine liver was purchased from Sigma-Aldrich (lyophilized powder, >15 units/mg solid; Unit definition: One unit will hydrolyze 1.0 μmole of ethyl butyrate to butyric acid and ethanol per min at pH 8.0 at 25). CLsuGG, CLsuG, CLsuGGG were purified with Agilent 1100 Series Liquid Chromatography system, equipped with an XTerra C18 RP column and Variable Wavelength detector.
Hydrolysis assay: Wild-type E. coli strains (K12) were harvested by centrifugation and the cell pellets were lysed using a sonic device. After centrifugation, the supernatant was collected and the proteinase inhibitor was added in the E. coli lysate. The concentration of E. coli lysate was normalized by the fluorescence intensity of 5-carboxyfluorescein diacetate (CFDA). […] Then the fluorescence was tested to draw a fluorescence-concentration dependent curve for figuring out the concentration of E. coli lysates. Solutions of CLsuGG (200 μM) were prepared in pH 7.4 PBS buffer. […] At different time points, the solution was taken out, extracted with an equal volume of butanol, concentrated to dryness, and resuspended with butanol for HPLC analysis. HPLC was performed with Agilent 1100 Series Liquid Chromatograph equipped with an XTerra C18 reverse phase column and Variable Wavelength Detector. The hydrolyzed mixture resuspended in 1 mL of butanol was injected to HPLC mobile phase (0.1% trifluoroacetic acid, the starting ratio: 10% acetonitrile and 90% water). The system was run at a flow rate of 10 mL/min.

[4] = test system: E. coli (K-12) lysate; test: Hydrolysis assay with E. coli lysate; format: in vitro ADME; settings: 24 hours after addition of E. coli lysate
Method: (§1) Hydrolysis assay: Wild-type E. coli strains (K12) were harvested by centrifugation and the cell pellets were lysed using a sonic device. After centrifugation, the supernatant was collected and the proteinase inhibitor was added in the E. coli lysate. The concentration of E. coli lysate was normalized by the fluorescence intensity of 5-carboxyfluorescein diacetate (CFDA). Briefly, different concentrations of CES (4 U/mL, 2 U/mL, 1 U/mL, 0.5 U/mL, 0.25 U/mL, 0.125 U/mL, 0.0625 U/mL, 0.03125 U/mL, 0.015625 U/mL and 0 U/mL) and different amount of E. coli lysates were prepared in PBS buffer. Followed by, 25 μM of CFDA was added in and incubated at room temperature for 1 hour. Then the fluorescence was tested to draw a fluorescence-concentration dependent curve for figuring out the concentration of E. coli lysates. Solutions of CLsuGG (200 μM) were prepared in pH 7.4 PBS buffer. CES and E. coli lysate (0.1 U/mL) were added and incubated with above solutions at 37° C. for 24 hours. At different time points, the solution was taken out, extracted with an equal volume of butanol, concentrated to dryness, and resuspended with butanol for HPLC analysis. HPLC was performed with Agilent 1100 Series Liquid Chromatograph equipped with an XTerra C18 reverse phase column and Variable Wavelength Detector. The hydrolyzed mixture resuspended in 1 mL of butanol was injected to HPLC mobile phase (0.1% trifluoroacetic acid, the starting ratio: 10% acetonitrile and 90% water). The system was run at a flow rate of 10 mL/min.
as §1, with “analysis.” for “analysis. HPLC was performed with Agilent 1100 Series Liquid Chromatograph equipped with an XTerra C18 reverse phase column and Variable Wavelength Detector. The hydrolyzed mixture resuspended in 1 mL of butanol was injected to HPLC mobile phase (0.1% trifluoroacetic acid, the starting ratio: 10% acetonitrile and 90% water). The system was run at a flow rate of 10 mL/min.”

[5] = Stability in human serum (LC-MS); format: in vitro ADME; settings: 200 μM, 37° C.; for Compounds remaining (%) 0 h / Compounds remaining (%) 2 h / Compounds remaining (%) 24 h: human serum
[6] = wild type E. coli (K-12), read-out: MIC
[7] = wild type E. coli (K-12), read-out: MIC (μg/mL)

NCCCCC(NC(=O)C(CCCCN)NC(=O)C(Cc1ccccc1)NC(=O)C(Cc1ccccc1)NC(=O)CCC(=O)OCC(NC(=O)C(Cl)Cl)C(O)c1ccc([N+](=O)[O-])cc1)C(=O)O (stereo not drawn) [Compound 2e] (Dichloroacetyl-[X1]FFKK-OH; configuration not given here)
MIC (μM) ([1]; wild type E. coli (K-12)): 200 µM (≈ 195 µg/mL)

CC(NC(=O)C(C)NC(=O)C(C)NC(=O)CCC(=O)OCC(NC(=O)C(Cl)Cl)C(O)c1ccc([N+](=O)[O-])cc1)C(=O)O (stereo not drawn) [Compound 1i]
MIC (μM) ([1]; wild type E. coli (K-12)): 80 µM (≈ 50.9 µg/mL)

O=C(O)CCC(=O)OC[C@@H](NC(=O)C(Cl)Cl)[C@H](O)c1ccc([N+](=O)[O-])cc1 [CLsu, chloramphenicol succinate, reference compound]
cytotoxicity / cell viability of HS-5 cells [2]: largely innocuous; also recorded: lower cytotoxicity than CL
hydrolysis with addition of CES [3]: hardly undergoes hydrolysis
fraction hydrolyzed [4]: less than 20%
conversion in human serum ([5]; after 24 hours): less than 15%
Compounds remaining (%) 0 h [5]: 100%
Compounds remaining (%) 2 h [5]: 96.2%
Compounds remaining (%) 24 h [5]: 87.0%
MIC ([1]; read-out: MIC value before addition of exogenous CES): 90 µM
MIC ([1]; FIG. 3B, with exogenous carboxylesterase (CES), read-out: MIC value after addition of exogenous CES): 49 µM
MIC [1, 6]: > 200 µM
MIC [1, 7]: > 84.6 µg/mL
MIC (μM) ([1]; wild type E. coli (K-12)): >200 µM
MIC (μg/mL) ([1]; wild type E. coli (K-12)): >84.6 µg/mL

CC(NC(=O)CNC(=O)CCC(=O)OCC(NC(=O)C(Cl)Cl)C(O)c1ccc([N+](=O)[O-])cc1)C(=O)O (stereo not drawn) [Compound 1b]
MIC (μM) ([1]; wild type E. coli (K-12)): 20 µM (≈ 11 µg/mL)

O=C(N[C@H](CO)[C@H](O)c1ccc([N+](=O)[O-])cc1)C(Cl)Cl [CL, chloramphenicol, reference compound]
cytotoxicity / cell viability of HS-5 cells [2]: reduced the viability
MIC [1, 6]: 20 µM
MIC [1, 7]: 6.5 µg/mL

O=C(O)CNC(=O)CNC(=O)CNC(=O)CNC(=O)CCC(=O)OCC(NC(=O)C(Cl)Cl)C(O)c1ccc([N+](=O)[O-])cc1 (stereo not drawn) [Compound 1f] (Dichloroacetyl-[X1]GGGG-OH)
MIC (μM) ([1]; wild type E. coli (K-12)): 20 µM (≈ 13 µg/mL)

O=C(CCC(=O)OCC(NC(=O)C(Cl)Cl)C(O)c1ccc([N+](=O)[O-])cc1)NC(Cc1ccccc1)C(=O)NC(Cc1ccccc1)C(=O)O (stereo not drawn) [Compound 3a]
MIC (μM) ([1]; wild type E. coli (K-12)): 100 µM (≈ 71.8 µg/mL)

O=C(CCC(=O)OCC(NC(=O)C(Cl)Cl)C(O)c1ccc([N+](=O)[O-])cc1)NCC(=O)NCC(=O)NC(Cc1ccccc1)C(=O)NC(Cc1ccccc1)C(=O)O (stereo not drawn) [Compound 1o] (Dichloroacetyl-[X1]GGFF-OH; configuration not given here)
Compounds remaining (%) 0 h [5]: 100%
Compounds remaining (%) 2 h [5]: 7.2%
Compounds remaining (%) 24 h [5]: 0%
MIC (μM) ([1]; wild type E. coli (K-12)): 20 µM (≈ 16.6 µg/mL)

O=C(O)CC(NC(=O)C(CC(=O)O)NC(=O)CCC(=O)OCC(NC(=O)C(Cl)Cl)C(O)c1ccc([N+](=O)[O-])cc1)C(=O)O (stereo not drawn) [Compound 2i]
MIC (μM) ([1]; wild type E. coli (K-12)): 200 µM (≈ 131 µg/mL)

O=C(O)CNC(=O)C(Cc1ccccc1)NC(=O)CNC(=O)CCC(=O)OCC(NC(=O)C(Cl)Cl)C(O)c1ccc([N+](=O)[O-])cc1 (stereo not drawn) [Compound 1m]
MIC (μM) ([1]; wild type E. coli (K-12)): 20 µM (≈ 13.7 µg/mL)

O=C(O)CNC(=O)CNC(=O)CNC(=O)CNC(=O)CNC(=O)CCC(=O)OCC(NC(=O)C(Cl)Cl)C(O)c1ccc([N+](=O)[O-])cc1 (stereo not drawn) [Compound 1q] (Dichloroacetyl-[X1]GGGGG-OH)
MIC (μM) ([1]; wild type E. coli (K-12)): 40 µM (≈ 28.3 µg/mL)

N=C(N)NCCCC(NC(=O)C(CCCNC(=N)N)NC(=O)CCC(=O)OCC(NC(=O)C(Cl)Cl)C(O)c1ccc([N+](=O)[O-])cc1)C(=O)O (stereo not drawn) [Compound 2a]
MIC (μM) ([1]; wild type E. coli (K-12)): 200 µM (≈ 147 µg/mL)

N=C(N)NCCCC(NC(=O)C(CCCNC(=N)N)NC(=O)C(Cc1ccccc1)NC(=O)C(Cc1ccccc1)NC(=O)CCC(=O)OCC(NC(=O)C(Cl)Cl)C(O)c1ccc([N+](=O)[O-])cc1)C(=O)O (stereo not drawn) [Compound 2d] (Dichloroacetyl-[X1]FFRR-OH; configuration not given here)
MIC (μM) ([1]; wild type E. coli (K-12)): 200 µM (≈ 206 µg/mL)

CC(NC(=O)C(C)NC(=O)C(C)NC(=O)CCC(=O)OCC(NC(=O)C(Cl)Cl)C(O)c1ccc([N+](=O)[O-])cc1)C(=O)O (stereo not drawn) [Compound 1j]
MIC (μM) ([1]; wild type E. coli (K-12)): 100 µM (≈ 63.6 µg/mL)

CC(NC(=O)C(C)NC(=O)CCC(=O)OCC(NC(=O)C(Cl)Cl)C(O)c1ccc([N+](=O)[O-])cc1)C(=O)O (stereo not drawn) [Compound 1h]
MIC (μM) ([1]; wild type E. coli (K-12)): 100 µM (≈ 56.5 µg/mL)

O=C(O)CCC(NC(=O)C(CCC(=O)O)NC(=O)CCC(=O)OCC(NC(=O)C(Cl)Cl)C(O)c1ccc([N+](=O)[O-])cc1)C(=O)O (stereo not drawn) [Compound 2g]
MIC (μM) ([1]; wild type E. coli (K-12)): >200 µM

NCCCCC(NC(=O)CNC(=O)CCC(=O)OCC(NC(=O)C(Cl)Cl)C(O)c1ccc([N+](=O)[O-])cc1)C(=O)O (stereo not drawn) [Compound 2f]
Compounds remaining (%) 0 h [5]: 100%
Compounds remaining (%) 2 h [5]: 0%
Compounds remaining (%) 24 h [5]: 0%
MIC (μM) ([1]; wild type E. coli (K-12)): 20 µM (≈ 12.2 µg/mL)

O=C(O)CC(NC(=O)CNC(=O)CCC(=O)OCC(NC(=O)C(Cl)Cl)C(O)c1ccc([N+](=O)[O-])cc1)C(=O)O (stereo not drawn) [Compound 2j]
MIC (μM) ([1]; wild type E. coli (K-12)): 20 µM (≈ 11.9 µg/mL)

CNC(=O)CNC(=O)CNC(=O)CCC(=O)OCC(NC(=O)C(Cl)Cl)C(O)c1ccc([N+](=O)[O-])cc1 (stereo not drawn) [Compound 1e]
MIC (μM) ([1]; wild type E. coli (K-12)): 20 µM (≈ 11 µg/mL)

CC(NC(=O)C(C)NC(=O)CCC(=O)OCC(NC(=O)C(Cl)Cl)C(O)c1ccc([N+](=O)[O-])cc1)C(=O)O (stereo not drawn) [Compound 1g]
MIC (μM) ([1]; wild type E. coli (K-12)): 80 µM (≈ 45.2 µg/mL)

O=C(O)CC(NC(=O)C(CC(=O)O)NC(=O)CCC(=O)OCC(NC(=O)C(Cl)Cl)C(O)c1ccc([N+](=O)[O-])cc1)C(=O)O (stereo not drawn) [Compound 2h]
MIC (μM) ([1]; wild type E. coli (K-12)): >200 µM

CC(C)CC(NC(=O)CNC(=O)CCC(=O)OCC(NC(=O)C(Cl)Cl)C(O)c1ccc([N+](=O)[O-])cc1)C(=O)O (stereo not drawn) [Compound 1a]
MIC (μM) ([1]; wild type E. coli (K-12)): 20 µM (≈ 11.9 µg/mL)

O=C(O)CNC(=O)CNC(=O)C(Cc1ccccc1)NC(=O)CCC(=O)OCC(NC(=O)C(Cl)Cl)C(O)c1ccc([N+](=O)[O-])cc1 (stereo not drawn) [Compound 1n]
MIC (μM) ([1]; wild type E. coli (K-12)): 80 µM (≈ 54.8 µg/mL)

O=C(CCC(=O)OCC(NC(=O)C(Cl)Cl)C(O)c1ccc([N+](=O)[O-])cc1)NCC(=O)NCC(=O)NC(Cc1ccccc1)C(=O)O (stereo not drawn) [Compound 1k]
Compounds remaining (%) 0 h [5]: 100%
Compounds remaining (%) 2 h [5]: 0%
Compounds remaining (%) 24 h [5]: 0%
MIC (μM) ([1]; wild type E. coli (K-12)): 20 µM (≈ 13.7 µg/mL)

O=C(O)CNC(=O)CCC(=O)OCC(NC(=O)C(Cl)Cl)C(O)c1ccc([N+](=O)[O-])cc1 (stereo not drawn) [CLsuG]
MIC (μM) ([1]; wild type E. coli (K-12)): >200 µM
MIC (μg/mL) ([1]; wild type E. coli (K-12)): > 95.8 µg/mL and 95.8 µg/mL

CC[C@H]1OC(=O)[C@H](C)C(=O)[C@H](C)[C@@H](O[C@@H]2O[C@H](C)C[C@H](N(C)C)[C@H]2O)[C@](C)(OC)C[C@@H](C)C(=O)[C@H](C)[C@H]2N(CCCCn3cnc(-c4cccnc4)c3)C(=O)O[C@]12C [telithromycin]
cytotoxicity of control compounds against HS-5 cells [2]: relatively low cytotoxicity

O=C(O)c1cn(C2CC2)c2cc(N3CCNCC3)c(F)cc2c1=O [ciprofloxacin]
cytotoxicity of control compounds against HS-5 cells [2]: relatively low cytotoxicity
